Reference: patent publication US11034654B2, “2,3-dihydroisoindole-1-carboxamides useful as ROR-gamma modulators” (AstraZeneca AB, priority 2017, dated 2021)

Legend:
[1] = target: T1, RORγ ligand binding domain (Homo sapiens, UniProt P51449); assay: RORγ radioligand competition binding assay (SPA); details: competition with tritiated 2-(4-(ethylsulfonyl)phenyl)-N-(4-(2-(methoxymethyl)phenyl)thiophen-2-yl)acetamide (25 nM), hRORγ LBD
From the text: RORγ Radioligand Competition Binding Assay The aim of this assay is to identify compounds which bind to the RORγ ligand binding domain, by competing with tritiated 2-(4-(ethylsulfonyl)phenyl)-N-(4-(2-(methoxymethyl)phenyl)thiophen-2-yl)acetamide. Human RORγ (Ligand Binding Domain (RORγ LBD) was expressed in E. coli (BL21DE3 Star) as a fusion protein: N-6×HN-Avi-GST-TCS-hRORγ LBD (S258-K518) subcloned into pET24a(+). The LBD (258-518) is underlined in the protein sequence: The scintillation proximity assay (SPA) was run in white polystyrene flat-bottom 384-well plates (Greiner, cat. No. 781075). Assays were carried out in 40 μl reaction volumes. Various concentrations of test ligands in 0.4 microlitres of DMSO were added to assay plates using an acoustic liquid dispenser. 4 nM purified N-(HN)6-GST-TCS-hRORγ (258-518) was mixed with 40 micrograms Yttrium oxide (YOx) glutathione SPA imaging beads in assay buffer (20 mM Tris, 150 mM NaCl, 10% Glycerol, 0.25% CHAPS, 1 mM TCEP) prior to adding 30 microlitres to test ligands. Assay plates were incubated for one hour at room temperature before adding 10 microlitres tritiated 2-(4-(ethylsulfonyl)phenyl)-N-(4-(2-(methoxymethyl)phenyl)thiophen-2-yl)acetamide to test plates in assay buffer (final concentration, 25 nM). Test plates were incubated for 16 hours and read using a LEADseeker Multimodality imaging instrument. The raw data was analysed and IC50 and Ki values for the compounds were calculated using Genedata Screener software. Raw data was transformed to % effect using equation 1: Compound % effect=100*[(X−min)/(max−min)], where X represents the normalized value for the compound based on the Min (vehicle) and Max (reference compound) inhibition controls. The concentration of test ligand that inhibited radioligand binding by 50% (i.e., the IC50) was calculated by plotting the % effect versus test ligand concentration and fitting the data using the Genedata Screener Smart fit algorithm. Ki is calculated from the IC50 value using the equation Ki=IC50/1+[L]/Kd) where [L]=25 nmol/L and Kd=17 nmol/L

[2] = system: human TH17 cells; assay: Inhibition of IL-17 release from human TH17 cells; type: cell-based; details: 96 h; isolated human TH17 cells cultured 4 days, IL-17A in supernatant by HTRF; read-out: pIC50 IL-17 release (converted)
From the text: Inhibition of IL-17 Release from Human TH17 Cells
This test is designed to screen compounds for their inhibitory effect on the release of IL-17 from isolated and cultured human TH17 cells.
Peripheral blood mononuclear cells (PBMC) were isolated from heparin treated human whole blood from healthy donors by density gradient centrifugation. TH17 cells (CD4+CXCR3−CCR6+) were enriched using a human TH17 Cell Enrichment Kit (Stemcell Technologies) according to the manufacturer's protocol. The isolated TH17 cells were activated with aCD3aCD28 beads (MACS Miltenyi) and cultured in X-Vivo15 medium (Lonza) supplemented with L-glutamine, β-mercaptoethanol and a cytokine cocktail consisting of; IL-2, IL-23, IL-1β, IL-6, TGF-β. Cells were seeded at 8000 cells/well in a 384-plate (Corning, #3707) in the presence of compounds or DMSO and cultured for 4 days (37° C., 5% CO2). On day 4 supernatants were collected and IL-17A was measured using a Human IL-17 HTRF Assay kit (Cisbio Bioassays) according to the manufacturer's protocol. The IC50 values for the tested compounds was calculated using Genedata Screener® software (Genedata) using the following calculation method; Compound % effect=100*[(X−min)/(max−min)], where X represents the normalized value for the compound based on the Min (DMSO) and Max (compound 3-(1,3-benzodioxol-5-yl)-1-(3,5-dimethylpiperidin-1-yl)-3-(2-hydroxy-4,6-dimethoxyphenyl)propan-1-one at 10 μM, described in J. R. Hu et al. ACS Med. Chem. Lett. 2013, 4, 79-84) inhibition controls. Results

[3] = target: T1, RORγ ligand binding domain; assay: RORγ co-factor recruitment assay (FRET); type: biochemical; parameters: made in house; host or cells: E. coli BL21DE3 Star; details: inhibition of recruitment of SRC-1 peptide (NCOA1_677-700) to hRORγ LBD, HTRF read-out
From the text: RORγ Co-Factor Recruitment Assay A high throughput coactivator binding assay for the identification of inverse agonists of the recruitment of peptide SRC-1 (NCOA1_677-_700) to the RORγ ligand binding domain was established. The ligand binding domain (LBD) of human RORγ was expressed in E. coli (BL21DE3 Star) as a fusion protein: N-6×HN-MBP-Avi-TCS-hRORγLBD(P260-K518) subcloned into pET24a(+). The LBD (P260-K518) is underlined in the protein sequence: The assay was run in black 384 well plates (Greiner cat no: 784900). Various concentrations of test ligands in 0.1 microlitres DMSO were dispensed to assay plates using an Echo acoustic dispenser. Two pre-mixes were prepared and incubated for 1 h at room temp in the dark. Pre-mix 1 comprised 100 nM Protein (Biotinylated HN-Avi-MBP-TCS-hRORγ (258-518)) and 60 nM Streptavidin APC in assay buffer, 50 mM MOPS pH7.4, 50 mM KF, 0.003% (w/v) CHAPS, 10 mM DTT and 0.01% (w/v) BSA and pre-mix 2 comprised 160 nM biotinylated SRC-1 peptide (NCOA1-677-700) and 20 nM Europium-W8044 labelled Streptavidin in assay buffer. Five microlitres of pre-mix 2 was dispensed to assay plates containing 0.1 microlitres of test compound and was incubated for 15 min prior to adding five microlitres of pre-mix 1. Plates were incubated at rt for 1 hour in the dark, prior to reading in a Pherastar multi-mode plate reader using HTRF filter set (ex 320, em 612 and 665). The FRET signal at 665 nm was divided by the signal at 612 nm and multiplied by 10,000 to generate a signal ratio value for each well. The raw data was transformed to % effect using the equation: Compound % effect=100*[(X−min)/(max−min)], where X represents the normalized value for the compound based on the Min (vehicle) and Max (reference compound) inhibition control. The concentration of test ligand that inhibited the activity by 50% (i.e., the IC50) was calculated by plotting the % effect versus test ligand concentration and fitting the data using the Genedata Screener Smart fit algorithm.

Compound | IC50 [1] [nM] | IC50 [2] [nM] | IC50 [3] [nM]
CS(=O)(=O)c1ccc2c(c1)CNC2C(=O)Nc1ccc(C(C#N)(C(F)(F)F)C(F)(F)F)cc1 (stereo not drawn) [Example 1, N-[4-(2-Cyano-1,1,1,3,3,3-hexafluoropropan-2-yl)phenyl]-5-(methylsulfonyl)-2,3-dihydro-1H-isoindole-1-carboxamide] | 200 | 100 | 126
CC(=O)N1Cc2cc(S(C)(=O)=O)ccc2C1C(=O)Nc1ccc(C(C#N)(C(F)(F)F)C(F)(F)F)cc1 (stereo not drawn) [Example 2, 2-Acetyl-N-[4-(2-cyano-1,1,1,3,3,3-hexafluoropropan-2-yl)phenyl]-5-(methylsulfonyl)-2,3-dihydro-1H-isoindole-1-carboxamide] | 15.8 | 10 | 126
COC1(C(=O)N2Cc3cc(S(C)(=O)=O)ccc3C2C(=O)Nc2ccc(C(C#N)(C(F)(F)F)C(F)(F)F)cc2)CC1 (stereo not drawn) [Example 3, N-[4-(2-Cyano-1,1,1,3,3,3-hexafluoropropan-2-yl)phenyl]-2-[(1-methoxycyclopropyl)carbonyl]-5-(methylsulfonyl)-2,3-dihydro-1H-isoindole-1-carboxamide] | 20 | 15.8 | 251
CNC(=O)N1Cc2cc(S(C)(=O)=O)ccc2C1C(=O)Nc1ccc(C(C#N)(C(F)(F)F)C(F)(F)F)cc1 (stereo not drawn) [Example 4, N^1-[4-(2-Cyano-1,1,1,3,3,3-hexafluoropropan-2-yl)phenyl]-N^2-methyl-5-(methylsulfonyl)-1,3-dihydro-2H-isoindole-1,2-dicarboxamide] | 12.6 | 7.94 | 63.1
CS(=O)(=O)c1ccc2c(c1)CN(C(=O)CO)C2C(=O)Nc1ccc(C(C#N)(C(F)(F)F)C(F)(F)F)cc1 (stereo not drawn) [Example 5, N-[4-(2-Cyano-1,1,1,3,3,3-hexafluoropropan-2-yl)phenyl]-2-(hydroxyacetyl)-5-(methylsulfonyl)-2,3-dihydro-1H-isoindole-1-carboxamide] | 12.6 | 10 | 50.1
N#CC(c1ccc(NC(=O)C2NCc3cc(S(=O)(=O)CC4CC4)ccc32)cc1)(C(F)(F)F)C(F)(F)F (stereo not drawn) [Example 12, N-[4-(2-Cyano-1,1,1,3,3,3-hexafluoropropan-2-yl)phenyl]-5-[(cyclopropylmethyl)sulfonyl]-2,3-dihydro-1H-isoindole-1-carboxamide] | 7.94 | 25.1 | 100
CC(=O)N1Cc2cc(S(=O)(=O)CC3CC3)ccc2C1C(=O)Nc1ccc(C(C#N)(C(F)(F)F)C(F)(F)F)cc1 (stereo not drawn) [Example 13, 2-Acetyl-N-[4-(2-cyano-1,1,1,3,3,3-hexafluoropropan-2-yl)phenyl]-5-[(cyclopropylmethyl)sulfonyl]-2,3-dihydro-1H-isoindole-1-carboxamide] | 6.31 | 5.01 | 63.1
CCS(=O)(=O)c1ccc2c(c1)CN(C(C)=O)C2C(=O)Nc1ccc(C(C#N)(C(F)(F)F)C(F)(F)F)cc1 (stereo not drawn) [Example 14, 2-Acetyl-N-[4-(2-cyano-1,1,1,3,3,3-hexafluoropropan-2-yl)phenyl]-5-(ethylsulfonyl)-2,3-dihydro-1H-isoindole-1-carboxamide] | 5.01 | 2.51 | 39.8
CC(=O)N1Cc2cc(S(C)(=O)=O)ccc2C1C(=O)Nc1ccc(C(N2CCCC2)(C(F)(F)F)C(F)(F)F)cc1 (stereo not drawn) [Example 15, 2-Acetyl-N-{4-[1,1,1,3,3,3-hexafluoro-2-(pyrrolidin-1-yl)propan-2-yl]phenyl}-5-(methylsulfonyl)-2,3-dihydro-1H-isoindole-1-carboxamide] | 5.01 | 3.98 | 39.8
COCCNC(c1ccc(NC(=O)C2c3ccc(S(C)(=O)=O)cc3CN2C(C)=O)cc1)(C(F)(F)F)C(F)(F)F (stereo not drawn) [Example 17, 2-Acetyl-N-(4-{1,1,1,3,3,3-hexafluoro-2-[(2-methoxyethyl)amino]propan-2-yl}phenyl)-5-(methylsulfonyl)-2,3-dihydro-1H-isoindole-1-carboxamide] | 31.6 | 20 | 100
COC1(CNC(c2ccc(NC(=O)C3c4ccc(S(C)(=O)=O)cc4CN3C(C)=O)cc2)(C(F)(F)F)C(F)(F)F)CC1 (stereo not drawn) [Example 18, 2-Acetyl-N-[4-(1,1,1,3,3,3-hexafluoro-2-{[(1-methoxycyclopropyl)methyl]amino}propan-2-yl)phenyl]-5-(methylsulfonyl)-2,3-dihydro-1H-isoindole-1-carboxamide] | 50.1 | 25.1 | 200
CC(=O)N1Cc2cc(S(C)(=O)=O)ccc2C1C(=O)Nc1ccc(C(NC2COC2)(C(F)(F)F)C(F)(F)F)cc1 (stereo not drawn) [Example 19, 2-Acetyl-N-{4-[1,1,1,3,3,3-hexafluoro-2-(oxetan-3-ylamino)propan-2-yl]phenyl}-5-(methylsulfonyl)-2,3-dihydro-1H-isoindole-1-carboxamide] | 126 | 50.1 | 100
CC(=O)N1Cc2cc(S(C)(=O)=O)ccc2C1C(=O)Nc1ccc(C(NC2CCOCC2)(C(F)(F)F)C(F)(F)F)cc1 (stereo not drawn) [Example 20, 2-Acetyl-N-{4-[1,1,1,3,3,3-hexafluoro-2-(tetrahydro-2H-pyran-4-ylamino)propan-2-yl]phenyl}-5-(methylsulfonyl)-2,3-dihydro-1H-isoindole-1-carboxamide] | 100 | 50.1 | 100
CC(=O)N1Cc2cc(S(C)(=O)=O)ccc2C1C(=O)Nc1ccc(C(NCCO)(C(F)(F)F)C(F)(F)F)cc1 (stereo not drawn) [Example 21, 2-Acetyl-N-(4-{1,1,1,3,3,3-hexafluoro-2-[(2-hydroxyethyl)amino]propan-2-yl}phenyl)-5-(methylsulfonyl)-2,3-dihydro-1H-isoindole-1-carboxamide] | 316 | 100 | 126
